According to the METLIN SMRT retention time set (Domingo-Almenara et al. 2019):

Test: gradient 5% acetonitrile 3 min, to 50% in 2 min, to 85% in 15 min, held 3 min, 100 µL/min
Conditions: column: Zorbax Extend-C18 2.1 x 50 mm; eluents: water / acetonitrile, 0.1% formic acid
Procedure, shortened: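 Pure standards were run in mixtures of ~100 molecules by HPLC coupled to a quadrupole time-of-flight mass spectrometer. The column was a Zorbax Extend-C18 (2.1 × 50 mm, 1.8 μm) at 100 μL/min, with water and acetonitrile each containing 0.1% formic acid, in positive and negative ionization mode. Dead and dwell volumes were 40 μL and 900 μL. Retention time was taken from computationally picked adduct peaks, each manually inspected, with data collected over 3 months.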

RP-LC retention time	Compound
704 s	CCN(CC)C(=O)c1ccc(-c2nc3cc(NS(=O)(=O)c4cc(F)ccc4F)ccc3n2C)cc1
672 s	O=S(=O)(NCC(c1ccco1)N1CCN(c2ccccc2F)CC1)c1cccs1 (stereo unspecified)
641 s	CCN(CC)CCN1C(=O)c2ccccc2NC1c1ccc(F)cc1 (stereo unspecified)
640 s	Cc1ccc(N2CC(C(=O)N3CCCC3)CC2=O)cc1 (stereo unspecified)
645 s	CSc1cccc(NC(=O)C2CCCN(C(=O)c3cc(-c4ccncc4)n[nH]3)C2)c1 (stereo unspecified)
627 s	Cc1cc(N(C)C)n2nc(CN3CCN(c4ccccc4Cl)CC3)nc2n1
718 s	CC(C)(C)NCCC(O)c1cc(C(F)(F)F)nc2c(C(F)(F)F)cccc12 (stereo unspecified)
998 s	CC(C)Cn1cc(CCNS(=O)(=O)c2ccc(Br)cc2)c2cccnc21
719 s	Cc1cccn2c(Nc3ccc4c(c3)OCCO4)c(-c3ccccc3O)nc12
906 s	CC(C)CCn1nc2c(S(=O)(=O)N3CCCCC3)cccn2c1=O
951 s	C=Cc1ccc(CN2N=C(C(=O)N3CCOCC3)S(=O)(=O)c3ccc(Cl)cc32)cc1
550 s	CCCNc1cc(N2CCCC(CCC(=O)NCc3ccccn3)C2)ncn1 (stereo unspecified)
691 s	CN1CCn2cc(S(=O)(=O)NCc3cc(F)cc(F)c3)cc2C1=O
601 s	Cc1cc(C)cc(NC(=O)C(=O)NCC(c2ccc3c(c2)CCCN3C)N2CCOCC2)c1 (stereo unspecified)
592 s	CCc1nnc2nc(N3CCN(C(=O)c4cccs4)CC3)cc(C)n12
872 s	COc1ccc(-c2cnn(CC(=O)Nc3cc(F)cc(F)c3)c(=O)n2)cc1
562 s	CCOc1cccc(CN2CC[C@@](C)(O)[C@H](N3CCCC3)C2)c1
813 s	CCOCCCNC(=O)C1CCCN(S(=O)(=O)c2ccc(OC)c(C)c2)C1 (stereo unspecified)
822 s	CC(=O)c1c(C)oc2ccc(NS(=O)(=O)c3cccc([N+](=O)[O-])c3)cc12
794 s	Cc1ccc(-c2noc(-c3cccc(S(=O)(=O)NCCN4CCCCCC4)c3)n2)cc1
817 s	COc1ccc(C(=O)N(Cc2cc(OC)c(OC)c(OC)c2)C2CCS(=O)(=O)C2)cc1Cl (stereo unspecified)
948 s	Cc1cc(-c2nn3c(COc4ccc(Cl)cc4)nnc3s2)no1

RP-LC retention time	Compound
931 s	CCOC(=O)c1sc(N2CCN(c3ccccc3)CC2)nc1N
756 s	CCOc1ncccc1CNC(=O)c1ccc2cc[nH]c2c1
746 s	O=C(CSCc1ccccc1)NCCS(=O)(=O)N1CCN(c2ncccn2)CC1
595 s	Cn1c(=O)c2c(ncn2CC(=O)Nc2cccc(N3CCCS3(=O)=O)c2)n(C)c1=O
901 s	Cc1ccc(N2CCN(Cc3nc(-c4ccc(N5CCCCC5)nc4)no3)CC2)cc1
652 s	CCOC(=O)C1CCN(C(=O)Cn2nc3c(N4CCCCCC4)nccn3c2=O)CC1
765 s	Cc1nc2cccnc2n1CC1CCCN(S(=O)(=O)c2ccc3c(c2)CCC3)C1 (stereo unspecified)
693 s	COc1cccc(S(=O)(=O)N2CCCC(Cn3c(C)nc4cccnc43)C2)c1 (stereo unspecified)
868 s	Cc1nc(-c2noc(-c3ccccc3)n2)cn1CC(=O)N1CCN(c2ccc(F)cc2)CC1
927 s	COc1ccccc1NC(=O)Cn1c(-c2nc(C(C)C)no2)cccc1=O
779 s	CC(Oc1cccc(Cl)c1)C(=O)NCC1CCOCC1 (stereo unspecified)
912 s	COc1ccc(S(=O)(=O)NCc2c(-c3ccccc3)nc3sc(C)nn23)cc1Cl
936 s	CCc1ccc(N2C=C(C(=O)N3CCOCC3)S(=O)(=O)c3ccc(Cl)cc32)cc1
765 s	FC(F)(F)c1cccc(CN2CCCN(c3ncccc3-c3nc(C4CC4)no3)CC2)c1
683 s	COc1ccc(CNc2nc(-c3ccccc3)nnc2C)cc1
1030 s	Cn1cc(C(=O)NCCc2ccccc2)c(S(=O)(=O)N2CCSCC2)n1
514 s	O=C(C1CCCN(c2nnc3ccccn23)C1)N1CCN(c2ccccn2)CC1 (stereo unspecified)
584 s	Cc1cc2c(cc1S(=O)(=O)N1CCCC1C(=O)N1CCN(C3CCCCC3)CC1)OCC(=O)N2 (stereo unspecified)
1130 s	COC(=O)c1ccccc1Nc1c(-c2ccc(Cl)cc2)nc2cnccn12
911 s	Cc1cc(OCC(=O)Nc2ccc(C)c(C)c2)nc(N2CCN(c3ccccc3)CC2)n1
791 s	CC(C)NC(=O)C1CCCN(c2nc3ncn(CC(=O)Nc4cccc(C(C)C)c4)c(=O)c3s2)C1 (stereo unspecified)
632 s	O=C(Nc1ccc2c(c1)CN(C(=O)C1CC1)CC2)NC1CC1

RP-LC retention time	Compound
936 s	O=C(NC1CCCCCCC1)C1CCN(C(=O)c2ncn3c2COC(c2ccc(Cl)cc2)C3)CC1 (stereo unspecified)
609 s	CC(=O)N1CCCC(c2nc(CNC(=O)C(C)C)cs2)C1 (stereo unspecified)
923 s	O=C(C1CC1)N1CCc2sc(S(=O)(=O)NCc3cccc(Cl)c3)cc2C1
770 s	CCc1ccc(NC(=O)N2CCC(OC3CCN(S(C)(=O)=O)CC3)CC2)cc1
831 s	CCC(C(=O)NCc1ccco1)n1nc(C)c2c(C)n(-c3ccccc3)nc2c1=O (stereo unspecified)
606 s	Cc1[nH]c(C)c(S(=O)(=O)N2CCN(c3ccccn3)CC2)c1C(=O)N1CCCCC1
787 s	COc1ccc(NC(=O)N2CCC3(CC2)NC(=O)c2ccc(Cl)cc2N3C)c(C)c1
661 s	Cc1ccsc1C(=O)N1CCCC2(CC1)CN(C)C(=O)O2 (stereo unspecified)
570 s	Cc1cc(N2CCCCC2)nc(NCCNS(=O)(=O)N(C)C)n1
678 s	COCCNC(=O)C1CCN(C(=O)Nc2ccc(NC(=O)Nc3ccccc3)cc2)CC1
777 s	CCCN(CC1CCOC1)C(=O)Nc1ccc(OC)c(F)c1 (stereo unspecified)
838 s	O=C(CS(=O)Cc1cnn(-c2ccccc2)c1-n1cccc1)NCc1cccc(F)c1 (stereo unspecified)
666 s	CCCn1cnc2cc(CNC(=O)Cc3c(Cl)cccc3Cl)ccc21
891 s	Clc1ccc(-c2nc3cnccn3c2Nc2ccc3c(c2)OCCO3)cc1
669 s	O=C(NCc1ccc(Cl)cc1)C1CCN(c2cn[nH]c(=O)c2)CC1
850 s	Nc1c(C(=O)NCc2ccc3c(c2)OCO3)nsc1C(=O)N1CCN(c2ncccn2)CC1
741 s	CNC(=O)c1cc2cc(Cl)ccc2[nH]1
727 s	COc1ccc(Cl)cc1NC(=O)Cn1c(C)nc(-c2ccccn2)cc1=O
789 s	Cc1ccc(CCNS(=O)(=O)c2ccc3c(c2)CCCC(=O)N3)cc1
972 s	COc1ccccc1-n1nnc(C(=O)OCc2nc(-c3ccccc3)oc2C)c1C
667 s	Cc1ccc2oc(-c3nnc(C(=O)NCCN4CCOCC4)o3)c(C)c2c1
990 s	COc1ccc(S(=O)(=O)N2CCc3c(c(-c4nnc(-c5ccccc5)o4)nn3C)C2)cc1Cl
